Patent US20150359812A1, “PROPHYLACTIC/THERAPEUTIC AGENT FOR DRY EYE” (priority 2012, published 2015)

Assays:
[1] = tested on: radical oxygen species in lacrimal gland tissue; experiment: Inhibitory action to radical oxygen species using isolated lacrimal glands of mice (DCFH-DA fluorescence); type: cell-based; details: for inhibition of radical oxygen by isolated delphinidin glycosides, FIG. 6: lacrimal gland cell suspension, DCFH-DA; for inhibition of radical oxygen in lacrimal cells, FIG. 12: comparison of delphinidin glycosides
Method: The action of the maqui berry extract to radical oxygen species in lacrimal gland tissue was evaluated using mice […].
The evaluation of the inhibitory action to radical oxygen species was done in the following way.
An isolated lacrimal gland was placed in a test tube, and 25 mg tissue/mL of cold phosphate-buffered saline (PBS) was added. After that, zirconia beads were added to the lacrimal gland that is to be crushed by a bead grinder. Then, 50 μL each of cell suspension was dispensed. Then, the maqui berry extract of Working Example 1 (1, 10 μg/mL) was added to the cell suspension, and then DCFH-DA solution as the radical oxygen series was added to make the final level of concentration at 75 μm. Then, after 60 minutes of incubation at 37 degrees Celsius, the cells were washed in PBS. The fluorescence-plate reader measured the intensity of fluorescence at (X485/528).
As a Comparative Example, the same test was done on lutein 10 μg/mL (compare and contrast).
Also, as a Comparative Example, the same test was done on the bilberry extract (Indena) and on the black currant extract (Tama Biochemical Co., Ltd.).
Furthermore, the same tests were done on the following examples.
Regarding Fr. 2: delphinidin-3,5-diglucoside (Working Example 3), Fr. 6: delphinidin-3-glucoside (Working Example 5) and delphinidin-3-rutinoside (Comparative Example 1: substance contained in cassis), the same evaluation as in Test Example 2 was done.
Regarding Fr. 6 delphinidin-3-glucoside (Working Example 5) and the other anthocyanin series (petunidin-3-glucoside, peonidin-3-glucoside, malvidin-3-glucoside and cyaniding-3-glucoside), the evaluation of Test Example 2 was done.

lacrimal cells = experiment: Absorption test of anthocyanins into lacrimal cells (HPLC); type: in vitro ADME; details: 100 μM, 30 minutes at 37 degrees Celsius, compared with D3G and D3R
Method: The test was done in the following way. Each anthocyanin (of delphinidin-3,5-diglucoside, delphinidin-3-O-glucoside and delphinidin-3-Orutinoside) was added to the lachrymal-cells suspension at the final concentration of 100 μM.
After that, the suspension was incubated for 30 minutes at 37 degrees Celsius. Then, the cells were washed and suspended again in the buffer. Thus, the amount of anthocyanin was analyzed by HPLC. The analysis is as follows.
The condition of HPLC is as follows:
Column: YMC UltraHT Pro C18 dia.2.0×100 mm
Column temperature: 30 degrees Celsius
Eluent: A=0.3% TFA aqueous solution, B=acetonitrile
Flow rate: 0.3 mL/min, Injection volume: 50 μL
Quantitative limit: 2 ng/mL (cyaniding-3-O-glucoside)

SMILES: OC[C@H]1O[C@@H](Oc2cc(O)cc3[o+]c(-c4cc(O)c(O)c(O)c4)c(O[C@@H]4O[C@H](CO)[C@@H](O)[C@H](O)[C@H]4O[C@@H]4OC[C@@H](O)[C@H](O)[C@H]4O)cc23)[C@H](O)[C@@H](O)[C@@H]1O [Fr. 1, Delphinidin-3sambubioside-5-glucoside]
- inhibition of radical oxygen by isolated delphinidin glycosides, FIG. 6 [1]: significantly inhibited

SMILES: OC[C@H]1O[C@@H](Oc2cc3c(O[C@@H]4O[C@H](CO)[C@@H](O)[C@H](O)[C@H]4O)cc(O)cc3[o+]c2-c2cc(O)c(O)c(O)c2)[C@H](O)[C@@H](O)[C@@H]1O [Fr. 2, Delphinidin-3,5-diglucoside]
- inhibition of radical oxygen in lacrimal cells, FIG. 12 [1]: excellent inhibitory action
- action in inhibiting radical oxygen in lacrimal cells compared to other anthocyanins, FIG. 13 ([1]; comparison with petunidin-, peonidin-, malvidin- and cyanidin-3-glucoside): especially excellent action
- inhibition of radical oxygen by isolated delphinidin glycosides, FIG. 6 [1]: significantly inhibited
- amount of absorption of anthocyanin into the lacrimal cells, FIG. 14 (lacrimal cells): absorbed by the lacrimal cells more

SMILES: OC[C@H]1O[C@@H](Oc2cc3c(O)cc(O)cc3[o+]c2-c2cc(O)c(O)c(O)c2)[C@H](O[C@@H]2OC[C@@H](O)[C@H](O)[C@H]2O)[C@@H](O)[C@@H]1O [Fr. 5, Delphinidin-3-sambubioside]
- inhibition of radical oxygen by isolated delphinidin glycosides, FIG. 6 [1]: significantly inhibited

SMILES: OC[C@H]1O[C@@H](Oc2cc3c(O)cc(O)cc3[o+]c2-c2cc(O)c(O)c(O)c2)[C@H](O)[C@@H](O)[C@@H]1O [Fr. 6, Delphinidin-3-glucoside]
- inhibition of radical oxygen in lacrimal cells, FIG. 12 [1]: inhibited
- inhibition of radical oxygen by isolated delphinidin glycosides, FIG. 6 [1]: significantly inhibited

SMILES: CC1O[C@@H](OC[C@H]2OC(Oc3cc4c(O)cc(O)cc4[o+]c3-c3cc(O)c(O)c(O)c3)[C@H](O)C(O)C2O)C(O)C(O)[C@H]1O (stereo partly drawn) [delphinidin-3-rutinoside, reference compound]
- inhibition of radical oxygen in lacrimal cells, FIG. 12 [1]: did not inhibit
